For assay [1], the system named is S1. Put plainly: MTT assay. Particulars: Homo sapiens, 72 h incubation, mean ± SD of three experiments, read-out: IC50 ± SD, Colon S1. The assay is classed as cell-based. On the procedure: (§1) The 3-(4,5-dimethylthiazol-2-yl)-2,5-diphenyltetrazolium bromide (MTT) assay was used to determine the sensitivity of the different CRC cells to the novel silybin derivatives (Hussein et al., [2017]; Manivannan et al., [2017]). The cells were seeded at a density of 4,000–5,000 cells/well in 96 well plates and incubated with serial dilutions of the compounds (0, 0.1, 0.3, 1, 3, 10, 30, and 100 μM). The MTT dye (4 mg/ml) was added after 72 h of incubation and incubated with the cells for an additional 4 h at 37°C. Following incubation, the media was discarded and the formazan crystals were dissolved by adding 100 μL of DMSO to each well. A DTX 880 multimode detector (Beckman Coulter Life, Indianapolis IN, USA) was used to determine the absorbance readings at a wavelength of 570 nm. The IC50 values were determined based on 3 separate experiments, with each experiment done in triplicate. The selectivity of the compounds was determined by comparing their cytotoxicity for CRC to normal epithelial cell lines (CHO, and CRL1459).

Assay [2] relates to LOVO. The assay is described as follows: MTT assay. The assay is classed as cell-based. The settings on record: Homo sapiens, 72 h incubation, mean ± SD of three experiments, read-out: IC50 ± SD, Colon LOVO. The procedure: as §1
In general terms: Tetrazolium dyes change colour on reduction, which living cells bring about.

For assay [3], the system named is CRL-1459. Put plainly: MTT assay, normal cell line. The assay is classed as cell-based. The settings on record: 72 h incubation, mean ± SD of three experiments. On the procedure: as §1
Assay [4] concerns CHO. The assay is described as follows: MTT assay, normal cell line. The assay is classed as cell-based, Chinese hamster. The settings on record: Cricetulus griseus, 72 h incubation, mean ± SD of three experiments. On the procedure:
as §1

In assay [5] the test system is HCT116. Put plainly: MTT assay. In kind it is cell-based, human. The settings on record: for IC50: Homo sapiens, HCT-116, MTT, 72 h incubation, mean ± SD of three experiments, read-out: IC50 ± SD, Colon HCT116. On the procedure:
as §1

Assay [6] concerns CRC cell lines (HCT116, LOVO, and S1). Put plainly: MTT assay, CRC cell lines together. The assay is classed as cell-based, human. The procedure: as §1
For assay [7], the system named is HCT116 cells. Put plainly: CellTiter-Glo luminescent assay (ATP content). The settings on record: Homo sapiens, HCT-116, data not shown, read-out: IC50, ATP depletion. In kind it is cell-based. On the procedure:
Subsequently, we conducted experiments to determine if compound 15k produced a time-dependent effect on cell death. […] The HCT116 cells had intense fluorescence over time compared to the cells incubated with vehicle, with a significant difference in the number of dead cells after 24 h of incubation with 2 μM of 15k. […] The cytotoxicity of 15k and 15j in HCT116 cells were further determined using a more homogeneous CellTiter-Glo® luminescent cell based assay that measures the ATP content in the metabolically active cells.
Background: Cellular ATP, detected with luciferase, serves as a proxy for viable cell number.

Assay [8] relates to HCT116. The assay is described as follows: Cell cycle analysis (PI, flow cytometry). In kind it is cell-based, human. Particulars: 0, 2 or 4 μM, 12 h, data not shown. The procedure: Cell cycle analysis was performed as described previously (Pozarowski and Darzynkiewicz, [2004]). Briefly, a 6 well plate was used for the seeding of HCT116 at 1 × 10^6 cells/well. The next day, 15j and 15k (0, 2, or 4 μM) were added and incubated with the seeded cells. After 12 h, the cells were trypsinzed with 0.25% trypsin, 2.21 mM EDTA, 1X, washed, counted and resuspended in 0.5 ml of ice cold PBS. PI stain was added to each suspension for at least 15 min to stain the DNA. The cell cycle analysis and cell distribution for each phase was measured using a BD Accuri™ C6 flow cytometer (BD Biosciences, Becton-Dickinson, San Jose, CA, USA) and analyzed using FCS express 5 plus De Novo software (Glendale, CA, USA).
A general note: In flow cytometry, cells or beads pass a laser one at a time.

Assay [9] concerns COLO 205 cell line. The assay is described as follows: Transwell migration assay. The settings on record: 2 and 4 μM, data not shown. In kind it is cell-based. On the procedure: (§2) The effect of compound 15k on the invasiveness of LOVO was tested using 24 trans-well inserts with an […]. The addition of the insert to the well forms two chambers (upper and lower), where the upper chamber was used to grow the cells on the porous membrane. The lower chamber was filled with 600 μl of cell-free DMEM medium. A 200 μl of cell suspension was added to each insert and allowed to attach for 1 h. The test compound was added in different concentrations and incubated with the cells for 24 h. […] Finally, the remaining migrated cells were fixed by methanol and dyed with 0.1% crystal violet dye and observed with an EVOS microscope. The number of migrated cells was counted and compared between the treated and control cells.
The development of cancer metastasis is dependent on the migration and invasive properties of cancerous cells (van Zijl et al., [2011]). The wound healing and transwell migration assays were used with LOVO cells, as a model for metastatic CRC as it is characterized by a high level of invasiveness (Fan et al., [2015]). The wound healing assay is a well-established method to detect and analyze cell migration potential (Liang et al., [2007]). […] The effect of compound 15k on the invasiveness of COLO 205 cell line was also measured using trans-well migration assay. […] 15j also reversed cell migration and metastasis at different concentrations.

The test system of assay [10] is HCT116 cells. The assay is described as follows: Colony formation assay. The assay is classed as cell-based, human. Particulars: 2 and 4 μM, 12 h incubation, colonies 10–14 days, vs vehicle control. The procedure:
In this assay, HCT116 cells were seeded in 6 well plates at a density of 250,000 cells/plate and allowed to grow overnight. Compounds 15j and 15k (0, 2 or 4 μM) were added the following day. After 12 h of incubation, the medium was discarded and cells were trypsinized with 0.25% trypsin, 2.21 mM EDTA, 1X, harvested, counted and reseeded in 6 well plates at a low density (500 cell/well). The cells were allowed to form colonies for 10–14 days at 37°C, with the medium being changed every other day. Subsequently, methanol was used to fix the colonies formed in each plate, followed by dyeing the colonies with 0.1% crystal violet dye for 30 min. Finally, colonies were viewed and counted under an EVOS microscope (Themo Fisher Scientific, Wayne, MI, USA). The colony formation rate equation was applied for each compound: Colony formation rate = number of colonies/number of seeded cells × 100 %.

Assay [11] concerns LOVO cells. Put plainly: Wound healing assay. In kind it is cell-based, human. The settings on record: 2 and 4 μM, 24 h and 48 h, vs vehicle. The procedure: In brief, the metastatic CRC cells (LOVO) were seeded in 6 well plates and allowed to grow as a monolayer until they reached 100% confluence. Upon confluence, 200 μl sterile tips were used to create a wound by gentle scratching of the complete cell monolayer. Sterile PBS was used to wash the cells several times to remove any floating cells. Different concentrations of the test compound were prepared in the culture media and added immediately after wound formation. The closure of the wound was observed by taking pictures at different time points by an EVOS microscope. Finally, the area of the wounds at different time points was calculated using Image J software (NIH, Bethesda, Maryland, USA).

Assay [12] deals with LOVO cells. The assay is described as follows: Transwell migration assay. The settings on record: 2 and 4 μM, 24 h, vs vehicle. In kind it is cell-based, human. On the procedure: as §2
The test system of assay [13] is HCT116 cells. The assay is described as follows: MitoTracker Red / Alexa Fluor 488 annexin V flow cytometry. In kind it is cell-based, human. The settings on record: 2 or 4 μM, p < 0.001 vs control, data not shown. On the procedure:
The mitochondrial membrane potential and the induction of apoptosis were analyzed in HCT116 cells using the MitoTracker Red and Alexa Fluor 488 annexin V kits for flow cytometry as previously described (Karthikeyan et al., [2015]). Six well plates were used for seeding of cells, followed by incubation with 15j or 15k (0, 1, 2, and 4μM) for overnight. Subsequently, the cells were harvested, counted and 4 μl of a 10μM working solution of MitoTracker Red was added to each 1 ml cell suspension, followed by 30 min of incubation at 37°C with 5% CO2. The cells were resuspended in 100 μl of annexin binding buffer and 5 μl of Alexa Fluor 488 annexin V was added to the suspension and incubated for 15 min. Finally, 400 μl of annexin-binding buffer was added and the stained cells were detected by flow cytometry. The fluorescence emission at 530 and 585 nm was measured using a BD Accuri™ C6 flow cytometer and analyzed using FCS express 5 plus De Novo software.

A word on the IC50: it is the concentration at which inhibition is half-maximal.

As to `O=C(/C=C/c1cccc(OCc2ccccc2)c1)c1ccccc1` [Compound 15a], the IC50 in assay [1] came out at 2.8 ± 0.5 µM; in assay [2] it was 11.5 ± 0.8 µM; in assay [3] it was 7.8 ± 1 µM; in assay [4] it was 22 ± 1.7 µM; in [5] it was 6.4 ± 0.2 µM.

As for `O=C(/C=C/c1cccc(OCc2ccccc2)c1)c1ccc(Cl)cc1` [Compound 15b], the IC50 was 9.5 ± 1.4 µM in [1]; 36.5 ± 1.5 µM in [2]; 12.8 ± 2.1 µM in assay [3]; 43.6 ± 1.9 µM in assay [4]; 12.7 ± 1.4 µM in assay [5].

For `O=C(/C=C/c1cccc(OCc2ccccc2)c1)c1ccc(Cl)cc1Cl` [Compound 15c], the IC50 in assay [1] came to 6.9 ± 1.1 µM; in assay [2] it was 6.7 ± 2.2 µM; in assay [3], 7.8 ± 1.1 µM; in [4], 27.5 ± 1.2 µM; in assay [5], 9 ± 1.1 µM.

Turning to `O=C(/C=C/c1cccc(OCc2ccccc2)c1)c1ccc([N+](=O)[O-])cc1` [Compound 15d], the 50% inhibitory concentration (IC50) was found to be 9 ± 1.2 µM in assay [1]; 36.3 ± 9.1 µM in assay [2]; 26 ± 1.6 µM in [3]; 82.4 ± 1.7 µM in [4]; 22.7 ± 4.2 µM in assay [5].

With `Cc1ccc(C(=O)/C=C/c2cccc(OCc3ccccc3)c2)cc1` [Compound 15e], the IC50 in assay [1] was found to be 22.4 ± 1.9 µM; in assay [2], 36.5 ± 1.3 µM; in assay [3] it was 19.8 ± 1.3 µM; in assay [4] it was 26.4 ± 0.9 µM; in assay [5], 16.5 ± 3.1 µM.

For the compound `COc1ccc(C(=O)/C=C/c2cccc(OCc3ccccc3)c2)cc1` [Compound 15f], the IC50 was determined as 23.4 ± 2.4 µM in assay [1]; 11.8 ± 3.5 µM in assay [2]; 25.4 ± 1.9 µM in assay [3]; 22.9 ± 0.3 µM in assay [4]; 44.7 ± 3.1 µM in assay [5].

Take `O=C(/C=C/c1cccc(OCc2ccccc2)c1)c1ccc(Cl)c(Cl)c1Cl` [Compound 15g]: the IC50 amounted to 2.3 ± 0.7 µM in assay [1]; 2.4 ± 0.4 µM in assay [2]; 2.5 ± 0.2 µM in assay [3]; 8.6 ± 0.9 µM in assay [4]; 0.4 µM in [5]. Also, in assay [5] (from MTT IC50, cell line not given), the “fold more efficacious than compound 15c” value came out at 22 fold. The “fold more efficacious than compound 15c in LOVO and S1 cells” value in [6] (from MTT IC50, LOVO and S1) was “three-fold”.

`O=C(/C=C/c1cccc(OCc2ccccc2)c1)c1ccccc1Br` [Compound 15h]: the half-maximal inhibitory concentration (IC50) in assay [1] came to 1.9 ± 0.5 µM; in assay [2] it was 1.9 ± 0.3 µM; in assay [3], 2.4 ± 0.9 µM; in [4] it was 9.1 ± 0.2 µM; in assay [5], 0.7 ± 0.2 µM.

As to `O=C(/C=C/c1cccc(OCc2ccccc2)c1)c1cccc(Br)c1` [Compound 15i], the IC50 was 6.2 ± 1.9 µM in assay [1]; 7.5 ± 0.9 µM in assay [2]; 7.2 ± 0.9 µM in assay [3]; 9.2 ± 0.4 µM in [4]; 1.9 ± 0.1 µM in [5].

As for `O=C(/C=C/c1cccc(OCc2ccccc2)c1)c1ccc(Br)cc1` [Compound 15j], the IC50 in assay [7] stood at 0.69 µM; in [1], 2.4 ± 0.7 µM; in assay [2] it was 1.8 ± 0.4 µM; in assay [3], 5.4 ± 1 µM; in assay [4] it was 9 ± 0.5 µM; in [5], 1 ± 0.2 µM. Further, the “effect on the cell cycle” value in assay [8] is on record as “significantly increased the level of cells in the sub G1 phase”. The trans-well migration result in assay [9] is listed as “significantly reduced the trans-well migration”. In assay [10], the colony formation rate entry is reported as “significantly decreased colony formation rate”. In assay [11], the “cell migration, wound closure” value is “migrated significantly slower”. Further, the “selectivity, CRC cells compared to normal cells” value in assay [6] (MTT, vs CRL1459 and CHO) is “selectively cytotoxic”. The “number of cells migrated through transwell” value in [12] is on record as “significantly reduced the trans-well migration”. In addition, the “mitochondrial membrane potential and apoptosis” value in assay [13] is “significant reduction in membrane potential and increase in the number of cells undergoing apoptosis”.
